{"source": "patent US9662387B2", "about": "“Functional, cross-linked nanostructures for tandem optical imaging and therapy” (Mallinckrodt LLC, priority 2010, dated 2017)", "key": {"[1]": {"test": "Core loading of phototherapeutic agent into micelles", "assay_type": "physicochemical", "conditions": "poly(p-hydroxystyrene) core; shown previously", "protocol": "Core loading was achieved by addition of MP-3397 stock solution (in DMF) into aqueous micelle solution followed by removal of organic solvent through dialysis. Alternatively, MP-3397 stock solution incubated with block copolymer (both in DMF) underwent co-assembly upon addition of water followed by dialysis. In an example, poly(p-hydroxystyrene) core achieved maximum of 5 wt % core loading whereas polystyrene core achieved ca. 15 wt %."}, "KB cells": {"system": "KB cells", "test": "EST-1 cell viability assay using KB cells (cell cytotoxicity)", "assay_type": "cell-based", "conditions": "Homo sapiens", "protocol": "Table 3 provides 1050 data for the EST-1 cell viability assay using KB cells with 2 hour treatment with the particles described above. […] HPLC and MS analyses were in agreement with the determination of PTX concentration.\nTable 5 provides results of cell cytotoxicity 1050 data for the EST-1 cell viability assay using KB cells with the particles described above. “ND” means not determined."}, "[2]": {"test": "DOX release experiments from dialysis cassette, Higuchi fit and f1/f2 profile comparison", "assay_type": "physicochemical", "conditions": "at either pH value (5.0 or 7.4)", "protocol": "General procedure for the DOX release experiments: To a presoaked dialysis cassette (Slide-A-Lyzer, 10 kDa MWCO, Pierce Biotechnology, Rockford Ill., USA) was added ca. 7 mL of the DOX-loaded SCK or SC-rod solution. The cassette was stirred in a beaker containing 4 L of 5 mM PBS at pH 5.0 or 7.4 and 37° C. for a period of 52 hrs. Samples (ca. 1 mL) were removed from the cassette at 0, 1, 2, 3, 5, 7, 9, 15, 21, 27, 39 and 52 h and analyzed by UV-vis spectroscopy (488 nm, ε=13050 M^−1 cm^−1) and injected back to the cassette immediately after the analysis. DOX release data points were then fitted to a third order polynomial equation.\nDOX-SCR or DOX-SCK (ca. 4 mL) was transferred to a presoaked dialysis cassette (Slide-A-Lyzer, 10 kDa MWCO, Pierce Biotechnology, Rockford Ill., USA). […] Samples (ca. 1.5 mL) were removed from the cassette at 0, 1, 2, 4, 6, 9, 12, 18, 24, 30, 40, 50 and 60 h, analyzed by UV-vis (488 nm, 6=12500 M^−1cm^−1 determined by a calibration curve in PBS), and then returned to the cassette. […]\nTo further quantitatively understand the differences and similarities in DOX release profiles, model-independent methods were used to calculate f1, the difference factor, and f2, the similarity factor (F. O. Costa, J. J. S. Sousa, A. Pais, S. J. Formosinho, J. Controlled Release 2003, 89, 199; J. W. Moore, H. H. Flanner, Pharm. Tech. 1996, 20, 67.): […]"}}, "note": "Read-outs that look alike come from different tables or passages of the source.", "data": [{"molecule": "Oc1c(I)cc(I)c(-c2c(I)cc(I)c(O)c2I)c1I", "note": "[MP-4089]", "values": [{"measurement": "core loading", "setting": "[1]", "result": 15, "unit": "wt %"}]}, {"molecule": "CC(=O)O[C@H]1C(=O)[C@@]2(C)[C@H]([C@H](OC(=O)c3ccccc3)[C@]3(O)C[C@H](OC(=O)[C@H](O)[C@@H](NC(=O)c4ccccc4)c4ccccc4)C(C)=C1C3(C)C)[C@]1(OC(C)=O)CO[C@@H]1C[C@@H]2O", "note": "[Paclitaxel, paclitaxel]", "values": [{"measurement": "IC50", "setting": "KB cells; 2 hr treatment, 60 nm particles, read-out: PTX 2 hr IC50", "result": 50, "unit": "nM"}, {"measurement": "IC50", "setting": "KB cells; 72 hr, 60 nm particles, read-out: PTX 72 hr IC50", "result": 7, "unit": "nM"}, {"measurement": "IC50", "setting": "KB cells; after one day of loading, 10 nm vs. 20 nm particles, read-out: 2 hr IC50", "result": 45, "unit": "nM"}, {"measurement": "IC50", "setting": "KB cells; after two weeks of loading, 10 nm vs. 20 nm particles, read-out: 72 hr IC50", "result": 2, "unit": "nM"}]}, {"molecule": "doxorubicin [free DOX]", "values": [{"measurement": "time to complete release from the dialysis cassette", "setting": "[2]", "result": "≤ 4", "unit": "h"}, {"measurement": "DOX release from the dialysis cassette", "setting": "[2]; in 3 h", "result": 95, "unit": "%"}]}]}
